Measured values from paper doi:10.1101/187716v3 (bioRxiv, 2017).

System: orthotopic 4T1 breast tumors
Experiment: PET-CT imaging of tumor accumulation in orthotopic 4T1 breast tumor mice
Assay type: in vivo, Balb/c mice
Settings: scans at 10 min, 2, 6, 12, 24, 48 h

With “Cys-Tyr-Ahx-LinTT1 [LinTT1-Tyr-^124I-PS]” the “time post injection at which tumor accumulation is seen by PET” value was 2 h.
